According to patent publication US8647824B2, “Microbial reductive dehalogenation of vinyl chloride” (The Board of Trustees of the Leland Stanford Junior …, priority 2004, dated 2014):
Several values for one entry are separate records, joined by “and”; a condition that tells them apart may be missing. Equal values may be shown once.

Experiments:
Pinellas culture = test: Batch dechlorination and growth kinetics, Pinellas culture; format: cell-based, Dehalococcoides-like microorganisms; conditions: for Maximum Growth Rate: 95% confidence interval
Description: (§1) Stock cultures. The Victoria mixed culture, containing strain VS, was maintained in a closed continuously stirred tank reactor (CSTR) as previously described. A VC enrichment of this culture, maintained over 5 years, was also used in these investigations. Liquid cultures of the three other cultures evaluated (Pinellas, KB-1/VC, and Dehalococcoides ethenogenes strain 195) were kept in anaerobic bottles, stored in an anaerobic chamber (10% H2, 10% CO2, 80% N2). The bottles were amended with TCE (1-3 μL neat liquid), VC (250 μL gas), and PCE (1-3 μL neat liquid) being added to each, respectively, approximately every two weeks.
(§2) Batch studies. For the experimental portion of this research, two studies were undertaken, one a comparative VC growth study, and the other a comparative growth and substrate utilization study with different chlorinated ethenes. These studies compared the dechlorination abilities of Dehalococcoides ethenogenes strain 195 and the Dehalococcoides-like microorganisms in the three mixed cultures (Victoria, KB-1/VC, and Pinellas).
For the first study, a VC enriched inoculum was first developed for each of the three mixed cultures. Here, bottles (120 mL) were filled with 60 mL of anaerobic media in an anaerobic chamber as previously described, and inoculated with 200 μL of each stock culture. Gaseous VC (99.5%) was added with a gas tight syringe (200 μL). The cultures were then moved to a shaker (60-80 rpm) in an anaerobic chamber (20±2° C.). Immediately after 5 μmol of ethene was formed in a bottle, 200 μL of the culture was transferred to fresh media (60 mL), in triplicate, and VC was again added (200 μL). The inoculum for the growth study was that formed after exactly 4 μmol of ethene was produced following this second transfer. To compare growth rates on VC, a range in concentration of each inocula (0.1, 0.3, 1, 3, 9 mL) was transferred to fresh media (as above) to result in a liquid volume of 60 mL, and gaseous VC (200 μL) was added to each. […] Hydrogen served as the electron donor and was non-limiting (>3%) in all studies. Headspace samples were periodically removed by syringe (250 μL) for chlorinated ethene analyses.
The purpose of the second study was to compare dechlorination rates of PCE, TCE and DCE between the three different cultures that grew on VC (Victoria, KB-1/VC and Pinellas). The development of inocula here was performed with VC, just as in the first study. For the growth and substrate utilization experiments, triplicate bottles were set up for each culture containing 1 mL of inoculum and either neat PCE (0.4 μL), neat TCE (0.3 μL), saturated DCE solution (34 μL) or gaseous VC (200 μL). To further investigate TCE removal, bottles (120 mL) were filled with 20 mL of a highly enriched culture of strain VS made from the Victoria culture. Duplicate bottles were supplied with gaseous VC (50 μL on day 0, then 150 μL on day 3) or TCE (0.4 μL neat liquid). Dechlorination was followed until all VC or TCE was converted to ethene (day 12). The change in strain VS concentration during VC and TCE utilization was then determined both by competitive PCR and by an activity procedure evaluated previously for strain VS. In the activity procedure a non-growth limiting concentration of VC (150 μL) along with excess hydrogen is added to a culture and the initial dechlorination rate is measured (over <1 day). A good estimate of strain VS concentration can then be obtained using the previously determined strain VS maximum VC utilization rate (7.8×10^−10 μmol Cl^− (cell·d)^−1). The increase in strain VS concentration during TCE or VC utilization was determined with these two procedures on the culture before and after TCE and VC utilization.
Comparative dechlorination and growth kinetics. With mixed cultures, the concentration of organisms carrying out a particular reaction is generally unknown and difficult to determine. […]

[1] = system: VC reductive dehalogenase of Dehalococcoides sp. strain VS; test: VC-reduction enzyme assay with Ti(III)-reduced methyl viologen as electron donor, gas chromatography; format: biochemical
Description: Enzyme assays. Cells were harvested by centrifugation (20,000 g, 20 min, 4° C.) under strictly anoxic conditions using the anoxic chamber, washed and resuspended in degassed MOPS buffer (20 mM, pH 7.2) supplemented with 2 mM DTE and 0.2 mM titanium(III)NTA (buffer A). The buffer was incubated overnight in the anoxic chamber before addition of reducing agents. Cell-free extracts were obtained by anoxic disruption of cells by French Press treatment (138 MPa; two passages), followed by two centrifugation steps (30,000×g, 15 min, 4° C.).
Assays of VC-reduction were conducted as described previously in 2-ml glass vials under an N2/H2 atmosphere with Ti(III)-reduced methyl viologen as artificial electron donor (Rosner et al.) The protein concentration in the assay varied between 10 and 100 μg/ml. The test was started by addition of gaseous VC to the assay mix (total aqueous volume 0.3 ml), and change in VC and ethene concentrations were followed with time by gas chromatography. Experiments testing for reduction of liquid chlorinated ethenes (PCE, TCE, DCE-isomers) were carried out essentially as described above with the appropriate substitution of the chlorinated ethene. The chlorinated compounds were added from aqueous stock solutions.
Oxygen sensitivity of VC-reducing activity in cell-free extract was investigated in buffer amended with resazurin as redox indicator. Prior to addition of VC, the assay was exposed to air until the resazurin underwent a color-change from colorless to pink. Subsequently, the assay was rendered anoxic again by exchanging the gas phase inside the anoxic chamber followed by addition of Ti(III)NTA (5 mM final concentration). All enzyme assays were carried out at ambient temperature, and given activities are means of at least three independent measurements.
Partial purification of VC reductase. Protein purification was performed at 4° C. in the anoxic chamber. The membrane fraction was obtained by centrifugation of cell-free extract at 100,000×g for 90 min at 4° C. The pellet was resuspended in 1 ml buffer A supplemented with 2 mM 3-[(3-cholamidopropyl)dimethylammonio]-1-propanesulfonic acid (CHAPS), and incubated for 1 h on ice. After subsequent centrifugation (100,000×g, 90 min, 4° C.) the solubilized membrane fraction was diluted with an equal volume of buffer B (50 mM 1,3-Bis[tris(hydroxymethyl)methylamino]propane (Bis-Tris Propane), pH 9.6, 2 mM dithiothreitol, 0.2 mM titanium(III)NTA, 20 mM CHAPS), and loaded on a 1-ml HighTrap Q column (Amersham Pharmacia) equilibrated with buffer C (same as buffer B but with 2 mM CHAPS). VC reductive dehalogenase activity was eluted as a single peak (at 550 to 580 mM NaCl) with 10 ml buffer C followed by a 40-ml linear gradient from 0-700 mM NaCl in buffer C at a flow of 1 ml/min. Fractions containing the highest activity were pooled and mixed with an equal volume of buffer A containing 20 mM CHAPS, and applied to a Superose-6 column equilibrated with the same buffer. Enzyme activity was eluted with buffer A at a flow rate of 0.2 ml/min. The protein concentration of the samples was determined according to Bradford with bovine serum albumin as a standard.

[2] = system: Victoria mixed culture, containing strain VS; conditions: traditional method of cell counting; cited from earlier work
[3] = system: Dehalococcoides ethenogenes strain 195; test: Batch dechlorination, D. ethenogenes strain 195 culture; format: cell-based; conditions: cultures supplied with VC or DCE
Description: as §1, §2
For the first study, a VC enriched inoculum was first developed for each of the three mixed cultures. Here, bottles (120 mL) were filled with 60 mL of anaerobic media in an anaerobic chamber as previously described, and inoculated with 200 μL of each stock culture. Gaseous VC (99.5%) was added with a gas tight syringe (200 μL). […]

| SMILES | Half velocity coefficient KT (Pinellas culture) [µM] | Maximum Growth Rate (Pinellas culture) | reduction rate relative to reduction rate for cDCE to VC ([1]; reduction of TCE to cDCE) [%] | effect on the reduction rate of VC ([1]; saturating concentrations of PCE or TCE present) | time to form 5 μmol of ethene (Pinellas culture; 200 μL VC) [days] | rate of reduction by active protein fractions ([1]; fractions after gel filtration, reduced methyl viologen as electron donor) | growth rate determined previously by cell counting [2] [day⁻¹] | dechlorination by D. ethenogenes strain 195 [3] |
| --- | --- | --- | --- | --- | --- | --- | --- | --- |
| ClC=C(Cl)Cl [TCE, trichloroethene] | 10.5 ± 0.7 | 0.49 day⁻¹ and 0.49 ± 0.03 day⁻¹ | 5 | not affected |  |  |  |  |
| C=CCl [VC, vinyl chloride] |  | 0.28 day⁻¹ and 0.28 ± 0.01 day⁻¹ |  |  | 21 | 350 nmol min^−1 [mg protein]^−1 | 0.4 | did not dechlorinate |
